Reference: paper PMC2948605 (Clinical cancer research : an official journal of the …, 2010)
Values belong to the compound of their own block, whether it stands above or below them.

Assays:
[1] = Doxorubicin and doxorubicinol pharmacokinetics in plasma by LC/MS/MS; type: in vivo, dog; details: three dogs, highest VPA cohort (240 mg/kg/day), IV DOX
[2] = Serum trough VPA concentration; type: in vivo, dog; details: 48 h after start of oral VPA, before fifth dose
[3] = system: WBC and neutrophil counts; assay: Complete blood counts for myelosuppression; type: in vivo, dog
[4] = system: acetylated histone H3 in PBMC; assay: PBMC histone H3 acetylation by immunofluorescence; type: in vivo, dog; details: fourteen evaluable PBMC samples, data not shown
[5] = system: dogs with spontaneous cancer
human patients = details: cited from earlier work
[6] = system: canine and human osteosarcoma cells; details: cited from earlier work
treatment-naïve lymphoma = details: DOX alone, treatment-naïve lymphoma in dogs; cited from earlier work

- PK of the major metabolite versus historical controls receiving DOX alone [1]: no significant changes
Structure (SMILES): COc1cccc2c1C(=O)c1c(O)c3c(c(O)c1C2=O)C[C@@](O)([C@@H](O)CO)C[C@@H]3O[C@H]1C[C@H](N)[C@H](O)[C@H](C)O1 [doxorubicinol]

Structure (SMILES): CCCC(CCC)C(=O)O [VPA, valproic acid]
- Trough serum VPA level reached [2]: up to 0.5 mM
- Myelosuppression induced by VPA ([3]; doses up to 240 mg/kg/day, day 3 vs day 1 WBC and neutrophils): does not induce any significant myelosuppression
- Potentiation of DOX induced myelosuppression ([3]; nadir WBC and neutrophil count day 7 post DOX vs VPA dose): no potentiation of DOX induced myelosuppression
- Correlation of fold change in PBMC histone H3 acetylation with trough VPA levels [4]: did not correlate
- Grade 3 metabolic event (ALKP > 5× ULN) ([5]; 180/90 mg/kg cohort, patient with Stage 5 lymphoma): single Grade 3 metabolic event
- Grade 2 anorexia ([5]; 210/105 mg/kg cohort): single Grade 2 anorexia
- Dose limiting toxicities ([5]; dogs at 240 mg/kg/day): no dose limiting toxicities
- Tolerability ([5]; oral VPA, all dose-escalation cohorts): well tolerated in all dose-escalation cohorts
- Maximum tolerated dose (MTD) ([5]; oral VPA, cohorts up to 240/120 mg/kg loading/maintenance): No maximum tolerated dose (MTD) was reached
- VPA dose that can be administered prior to a standard dose of DOX ([5]; oral divalproex for 48 h before DOX, tumor-bearing dogs): up to 240 mg/kg/day
- MTD in human Phase I studies (human patients): 140 mg/kg/day
- Effect of VPA pre-treatment on sensitivity to doxorubicin ([6]; canine and human osteosarcoma cells): results in sensitization to doxorubicin
- VPA level capable of chemosensitization in vitro ([6]; previous work): 0.5 mM

Structure (SMILES): COc1cccc2c1C(=O)c1c(O)c3c(c(O)c1C2=O)C[C@@](O)(C(=O)CO)C[C@@H]3O[C@H]1C[C@H](N)[C@H](O)[C@H](C)O1 [DOX, doxorubicin]
- Reported remission rates (treatment-naïve lymphoma): 60-85%
- Cardiotoxicity ([5]; VPA pre-treated dogs, not directly evaluated, cumulative DOX dose < 150 mg/m^2): did not observe any obvious cardiotoxicity
